Results: patent US20070179060A1, “6-(Poly-substituted aryl)-4-aminopicolinates and their use as herbicides” (priority 2006, published 2007)

Key:
barley (Hordeum vulare) = assay: Postemergence herbicidal activity in cereal crops; type: in vivo; conditions: crop, post-emergent, after 20-22 days; for % Control HORVS: 70 g ai/ha; for pest or weed control at 17.5 g/ha / pest or weed control at 35 g/ha: Hordeum, post-emergence, 480 h, read-out: % Control HORVS; for pest or weed control at 17.5 g/ha: 17.5 g ai/ha; for pest or weed control at 35 g/ha: 35 g ai/ha
Protocol: (§1) When required to ensure good germination and healthy plants, a fungicide treatment and/or other chemical or physical treatment was applied. The plants were grown for 7-36 days in a greenhouse with an approximate 14 hour photoperiod which was maintained at about 18° C. during the day and 17° C. during the night. Nutrients and water were added on a regular basis and supplemental lighting was provided with overhead metal halide 1000-Watt lamps as necessary. The plants were employed for testing when they reached the second or third true leaf stage. […] The concentrated stock solutions obtained were diluted with 16 mL of an aqueous mixture containing acetone, water, isopropyl alcohol, DMSO, Agri-dex crop oil concentrate, and Triton® X-77 surfactant in a 64.7:26.0:6.7:2.0:0.7:0.01 v/v ratio to obtain spray solutions containing the highest application rates. […] Compound requirements are based upon a 12 mL application volume at a rate of 187 L/ha. Formulated compounds were applied to the plant material with an overhead Mandel track sprayer equipped with a […] nozzles calibrated to deliver 187 L/ha over an application area of 0.503 square meters at a spray height of 18 inches (43 cm) above average plant canopy height. Control plants were sprayed in the same manner with the blank. The treated plants and control plants were placed in a greenhouse as described above and watered by sub-irrigation to prevent wash-off of the test compounds.

Galium aparine = assay: Postemergence herbicidal activity in cereal crops; type: in vivo; conditions: post-emergent, after 20-22 days; for % Control GALAP: 70 g ai/ha; for pest or weed control at 17.5 g/ha / pest or weed control at 35 g/ha: Galium aparine, post-emergence, 480 h, read-out: % Control GALAP; for pest or weed control at 17.5 g/ha: 17.5 g ai/ha; for pest or weed control at 35 g/ha: 35 g ai/ha
Protocol: as §1

Veronica persica = assay: Postemergence herbicidal activity in cereal crops; type: in vivo; conditions: post-emergent, after 20-22 days; for % Control VERPE: 70 g ai/ha; for pest or weed control at 17.5 g/ha / pest or weed control at 35 g/ha: Veronica persica, post-emergence, 480 h, read-out: % Control VERPE; for pest or weed control at 17.5 g/ha: 17.5 g ai/ha; for pest or weed control at 35 g/ha: 35 g ai/ha
Protocol: as §1

[1] = test system: wheat (Triticum aestivum); assay: Postemergence herbicidal activity in cereal crops; type: in vivo; conditions: crop, post-emergent, after 20-22 days; for % Control TRZAS: 70 g ai/ha; for plant injury at 17.5 g/ha / plant injury at 35 g/ha: Triticum aestivum, post-emergence, 480 h, read-out: % Control TRZAS; for plant injury at 17.5 g/ha: 17.5 g ai/ha; for plant injury at 35 g/ha: 35 g ai/ha
Protocol: as §1

Papaver rhoeas = assay: Postemergence herbicidal activity in cereal crops; type: in vivo; conditions: post-emergent, after 20-22 days; for % Control PAPRH: 70 g ai/ha; for pest or weed control at 17.5 g/ha / pest or weed control at 35 g/ha: Papaver rhoeas, post-emergence, 480 h, read-out: % Control PAPRH; for pest or weed control at 17.5 g/ha: 17.5 g ai/ha; for pest or weed control at 35 g/ha: 35 g ai/ha
Protocol: as §1

Lamium purpureum = assay: Postemergence herbicidal activity in cereal crops; type: in vivo; conditions: post-emergent, after 20-22 days; for % Control LAMPU: 70 g ai/ha; for pest or weed control at 17.5 g/ha / pest or weed control at 35 g/ha: Lamium purpureum, post-emergence, 480 h, read-out: % Control LAMPU; for pest or weed control at 17.5 g/ha: 17.5 g ai/ha; for pest or weed control at 35 g/ha: 35 g ai/ha
Protocol: as §1

[2] = test system: redroot pigweed (Amaranthus retroflexus); assay: Postemergence herbicidal activity; type: in vivo; conditions: post-emergent, 140 g ai/ha, after 14 days; for pest or weed control at 140 g/ha: Amaranthus retroflexus, post-emergence, 336 h, read-out: % Control AMARE
In short: (§2)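 Compounds were applied postemergence by track sprayer delivering 187 L/ha, using a mixed organic/aqueous carrier containing crop oil concentrate and surfactant; solvent-blank sprays served as controls. Test plants were at the first to second true leaf stage after 7-21 days' greenhouse growth, were sub-irrigated after treatment, and were evaluated by probit analysis.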

[3] = test system: velvetleaf (Abutilon theophrasti); assay: Postemergence herbicidal activity; type: in vivo; conditions: post-emergent, 140 g ai/ha, after 14 days; for pest or weed control at 140 g/ha: Abutilon theophrasti, post-emergence, 336 h, read-out: % Control ABUTH
In short: as §2

[4] = test system: lambsquarter (Chenopodium album); assay: Postemergence herbicidal activity; type: in vivo; conditions: post-emergent, 140 g ai/ha, after 14 days; for pest or weed control at 140 g/ha: Chenopodium album, post-emergence, 336 h, read-out: % Control CHEAL
In short: as §2

[5] = test system: redroot pigweed (Amaranthus retroflexus); assay: Preemergence herbicidal activity; type: in vivo; conditions: Amaranthus retroflexus, pre-emergence, 480 h; pre-emergent, 140 g ai/ha, after 20-22 days; read-out: % Control AMARE
Description: (§3) Seeds of the desired test plant species were planted in a soil matrix prepared by mixing a loam soil (43 percent silt, 19 percent clay, and 38 percent sand, with a pH of about 8.1 and an organic matter content of about 1.5 percent) and sand in a 70 to 30 ratio. The soil matrix was contained in plastic pots with a surface area of 113 square centimeters. When required to ensure good germination and healthy plants, a fungicide treatment and/or other chemical or physical treatment was applied. […] Compound requirements are based upon a 12 mL application volume at a rate of 187 L/ha. Formulated compounds were applied to the plant material with an overhead Mandel track sprayer equipped with a […] nozzles calibrated to deliver 187 L/ha over an application area of 0.503 square meters at a spray height of 18 inches (43 cm) above the soil surface. Control plants were sprayed in the same manner with the solvent blank. The treated pots and control pots were placed in a greenhouse maintained with an approximate 15 hour photoperiod and temperatures of about 23-29° C. during the day and 22-28° C. during the night. Nutrients and water were added on a regular basis and supplemental lighting was provided with overhead metal halide 1000-watt lamps as necessary. The water was added by top-irrigation.

[6] = test system: velvetleaf (Abutilon theophrasti); assay: Preemergence herbicidal activity; type: in vivo; conditions: Abutilon theophrasti, pre-emergence, 480 h; pre-emergent, 140 g ai/ha, after 20-22 days; read-out: % Control ABUTH
Description: as §3

[7] = test system: lambsquarter (Chenopodium album); assay: Preemergence herbicidal activity; type: in vivo; conditions: Chenopodium album, pre-emergence, 480 h; pre-emergent, 140 g ai/ha, after 20-22 days; read-out: % Control CHEAL
Description: as §3

Row | melting point [°C] | Compound | pest or weed control at 17.5 g/ha (barley (Hordeum vulare)) [%] | pest or weed control at 17.5 g/ha (Galium aparine) [%] | pest or weed control at 17.5 g/ha (Veronica persica) [%] | plant injury at 17.5 g/ha [1] [%] | pest or weed control at 17.5 g/ha (Papaver rhoeas) [%] | pest or weed control at 17.5 g/ha (Lamium purpureum) [%] | pest or weed control at 140 g/ha [2] [%] | pest or weed control at 140 g/ha [3] [%] | pest or weed control at 140 g/ha [4] [%] | pest or weed control at 140 g/ha [5] [%] | pest or weed control at 140 g/ha [6] [%] | pest or weed control at 140 g/ha [7] [%] | other results
1 |  | COC(=O)c1nc(-c2ccc(C)c(OC)c2F)cc(N)c1Cl [Compound 36, 4-amino-3-chloro-6-(2-fluoro-3-methoxy-4-methylphenyl) pyridine-2-carboxylic acid, methyl ester] |  |  |  |  |  |  |  |  |  |  |  |  | % Control HORVS (barley (Hordeum vulare)): 0%; % Control GALAP (Galium aparine): 95%; % Control VERPE (Veronica persica): 50%; % Control TRZAS [1]: 5%; % Control PAPRH (Papaver rhoeas): 99%; % Control LAMPU (Lamium purpureum): 99%; % Control AMARE [2]: 100%; % Control ABUTH [3]: 100%; % Control CHEAL [4]: 100%
2 | 144 to 146 | COC(=O)c1nc(-c2ccc(C(F)(F)F)c(OC)c2F)cc(N)c1Cl [Compound 45, 4-Amino-3-chloro-6-(2-fluoro-3-methoxy-4-trifluoromethylphenyl)pyridine-2-carboxylic acid methyl ester] | 0 | 90 | 80 | 0 | 90 | 100 | 80 | 100 | 95 |  |  |  | 
3 |  | COC(=O)c1nc(-c2c(F)cc(C)c(OC)c2F)cc(N)c1Cl [Compound 51, 4-Amino-3-chloro-6-(2,6-difluoro-3-methoxy-4-methylphenyl)pyridine-2-carboxylic acid, methyl ester] |  |  |  |  |  |  | 100 | 100 | 100 |  |  |  | pest or weed control at 35 g/ha (barley (Hordeum vulare)): 0%; pest or weed control at 35 g/ha (Galium aparine): 95%; pest or weed control at 35 g/ha (Veronica persica): 30%; plant injury at 35 g/ha [1]: 0%; pest or weed control at 35 g/ha (Papaver rhoeas): 100%; pest or weed control at 35 g/ha (Lamium purpureum): 70%
4 |  | COC(=O)c1nc(-c2c(F)cc(F)c(OC)c2F)cc(N)c1Cl [Compound 56, 4-Amino-3-chloro-6-(2,4,6-trifluoro-3-methyoxyphenyl)pyridine-2-carboxylic acid, methyl ester] |  |  |  |  |  |  |  |  |  |  |  |  | % Control HORVS (barley (Hordeum vulare)): 10%; % Control GALAP (Galium aparine): 100%; % Control VERPE (Veronica persica): 95%; % Control TRZAS [1]: 0%; % Control PAPRH (Papaver rhoeas): 100%; % Control LAMPU (Lamium purpureum): 99%; % Control AMARE [2]: 100%; % Control ABUTH [3]: 100%; % Control CHEAL [4]: 100%
5 |  | COC(=O)c1nc(-c2ccc(Cl)c(C(F)C(F)(F)F)c2F)cc(N)c1Cl (stereo not shown) [Compound 65, 4-Amino-3-chloro-6-[4-chloro-2-fluoro-3-(1,2,2,2-tetrafluoroethyl)phenyl)-pyridine-2-carboxylic acid, methyl ester] |  |  |  |  |  |  | 100 | 95 | 90 |  |  |  | pest or weed control at 35 g/ha (barley (Hordeum vulare)): 5%; pest or weed control at 35 g/ha (Galium aparine): 85%; pest or weed control at 35 g/ha (Veronica persica): 40%; plant injury at 35 g/ha [1]: 15%; pest or weed control at 35 g/ha (Papaver rhoeas): 90%; pest or weed control at 35 g/ha (Lamium purpureum): 95%
6 |  | CCCCOCCOC(=O)c1nc(-c2ccc(Cl)c(OC)c2F)cc(N)c1Cl [Compound 87, 4-Amino-3-chloro-6-(4-chloro-2-fluoro-3-methoxyphenyl)pyridine-2-carboxylic acid, 2-butoxy-ethyl ester] | 0 | 100 | 50 | 0 | 100 | 100 | 100 | 100 | 100 |  |  |  | 
7 | 179 to 180 | Nc1c(F)c(-c2ccc3c(c2F)OCO3)nc(C(=O)O)c1Cl [Compound 115, 4-Amino-3-chloro-5-fluoro-6-(2-fluoro-3,4-methylenedioxyphenyl)pyridine-2-carboxylic acid] |  |  |  |  |  |  | 100 | 100 | 100 | 100 | 100 | 100 | 
8 | 174 to 175 | CCN(CC)c1c(Cl)ccc(-c2cc(N)c(Cl)c(C(=O)O)n2)c1F [Compound 116, 4-Amino-3-chloro-6-[4-chloro-3-(diethylamino)-2-fluorophenyl]pyridine-2-carboxylic acid] |  |  |  |  |  |  | 90 | 80 | 100 | 100 | 100 | 75 | 
9 | 192 to 193 | COc1c(Br)ccc(-c2cc(N)c(Cl)c(C(=O)O)n2)c1Cl [Compound 121, 4-Amino-6-(4-bromo-2-chloro-3-methoxyphenyl)-3-chloropyridine-2-carboxylic acid] |  |  |  |  |  |  | 95 | 100 | 90 | 100 | 100 | 100 | 
10 |  | COc1c(Cl)cc(F)c(-c2cc(N)c(Cl)c(C(=O)O)n2)c1F [Compound 133, 4-Amino-3-chloro-6-(4-chloro-2,6-difluoro-3-methoxyphenyl)pyridine-2-carboxylic acid] | 0 | 100 | 70 | 0 | 100 | 99 |  |  |  |  |  |  | 
